Laboratory results reported in patent publication US20260193254A1, “2-OXOQUINAZOLINE CRYSTALLINE FORMS” (IDEAYA Biosciences, Inc., priority 2022, published 2026).

Assays:
[1] = Crystallization from hot saturated solutions by slow cooling; assay type: physicochemical; settings: 50° C. to 5° C. at 0.1° C./min
Description: Obtained solution or suspension was filtered by a 0.45 μm syringe membrane filter. Clear solutions were cooled to 5° C. at 0.1° C./min. Precipitates were collected by filtration. The solid part (wet cake) was investigated by XRPD. When differences were observed, additional investigations were performed (e.g. DSC, TGA, etc.).

[2] = Equilibration with solvents at 50° C. for 1 week; assay type: physicochemical; settings: XRPD of wet cake
Description: Obtained suspension was filtered. The solid part (wet cake) was investigated by XRPD. When differences were observed, additional investigations were performed (e.g. DSC, TGA etc.).

Nc1nc(=O)n(-c2ccccc2Cl)c2nc(C(F)(F)F)ccc12 [solid state Form V, 4-Amino-1-(2-chlorophenyl)-7-(trifluoromethyl)pyrido[2,3-d]pyrimidin-2(1H)-one]
Crystalline Form formed by slow cooling of hot saturated solution ([1]; SC2 Ethanol (14 mg/mL)): Form F
Crystalline Form formed by slow cooling of hot saturated solution ([1]; SC4 Acetone (7 mg/mL)): Form G
Crystalline Form formed by slow cooling of hot saturated solution ([1]; SC6 Ethanol/water = 1/1 (v/v) (8 mg/mL)): Form F
Crystalline Form formed by slow cooling of hot saturated solution ([1]; SC8 Ethanol/acetone = 1/1 (v/v) (16 mg/mL)): Form G
Crystalline Form formed by equilibration ([2]; EQ20 Water (64 mg/mL)): Form D (mono hydrate)
Crystalline Form formed by equilibration ([2]; EQ21 Methanol (63 mg/mL)): Form C (hemi-hydrate)
Crystalline Form formed by equilibration ([2]; EQ22 Methanol/water = 1/1 (v/v) (64 mg/mL)): Form E (hemi-hydrate)
Crystalline Form formed by equilibration ([2]; EQ24 Ethanol/water = 1/1 (v/v) (63 mg/mL)): Form C (hemi-hydrate)
Crystalline Form formed by equilibration ([2]; EQ26 Acetone (65 mg/mL)): Form G
Crystalline Form formed by equilibration ([2]; EQ27 Acetone/water = 1/1 (v/v) (63 mg/mL)): Form I
Crystalline Form formed by equilibration ([2]; EQ29 t-Butyl methyl ether (65 mg/mL)): Form H (MTBE solvate)
Crystalline Form formed by equilibration ([2]; EQ30 t-Butyl methyl ether/water = 95/5 (v/v) (63 mg/mL)): Form H (MTBE solvate)
